Reference: ChEMBL document CHEMBL1157539, “Thousands of chemical starting points for antimalarial lead identification” (Nature, 2010)

System: Plasmodium falciparum
Experiment: GSK_TCMDC: Inhibition of Plasmodium falciparum 3D7 in whole erythrocytes, using parasite LDH activity as an index of growth.
Type: functional, organism-based
Conditions: Plasmodium falciparum, 3D7

Row | SMILES | XC50 [nM]
1 | CN1CC=C(c2c[nH]c3ccc(-c4ccccc4)cc23)CC1 | 775
2 | C/C=C/COc1ccc(-c2c(C)[nH]c(C)c(Cl)c2=O)cc1 | 197
3 | O=S(=O)(NCCN1CCCC1)c1ccc(-c2ccc(CNC3Cc4ccccc4C3)cc2)s1 | 590
4 | Cc1nn(C)c(C)c1CN(Cc1nc(-c2cccc(Oc3ccccc3)c2)oc1C)C1CC1 | 392
5 | Cc1cc(N[C@@H](Cc2ccccc2)C(=O)NCc2cccc(F)c2)nc(NCCc2ccccc2)n1 | 1020
6 | Cc1cc(CN2CC[C@H](NC(=O)c3ccc(Cl)c(Cl)c3)C2)ccc1OCCN1CCNCC1 | 944
7 | CN1CCN(CC(=O)Nc2ccc(-c3ccc(-c4nc5ccccc5[nH]4)cc3)cc2)CC1 | 696
8 | c1ccc(C2CCC(N3CCC(N4CCCC4)CC3)CC2)cc1 (stereo unspecified) | 671
9 | CCCC(C)N(Cc1ccc(C(C)(C)C)cc1)C(=O)c1cccc(OC)c1 (stereo unspecified) | 336
10 | [O-][s+]1nc(NCCCN(Cc2cccs2)c2ccccn2)c(NCc2ccccc2)n1 (stereo unspecified) | 305
11 | Cc1nc(Nc2ccncc2)cc(-c2ccncc2)n1 | 725
12 | N#Cc1ccc2c(c1)CN(CCC1CCC(NC(=O)c3cc4ccccc4cc3N)CC1)CC2 (stereo unspecified) | 1040
13 | CC(C)C(=O)NC(c1ccc(N(C)C)cc1)c1cc(Cl)c2cccnc2c1O (stereo unspecified) | 859
14 | COc1ccc(NC(=O)[C@H](Cc2ccccc2)Nc2cc(C)nc(NCCc3cccs3)n2)cc1 | 749
15 | CN1CCC(N2CCN(Cc3cccc(-c4ccc(-c5nc6cc(F)ccc6[nH]5)cc4)c3)CC2)CC1 | 107
16 | O=C(Nc1ccc(OC2CCN(Cc3ccccc3)C2)c(Cl)c1)c1ccco1 (stereo unspecified) | 406
17 | O=C(Nc1ccccc1F)NC1CCN(c2ccnc(Nc3ccc(F)cc3)n2)C1 (stereo unspecified) | 854
18 | N=C(N)NN=CC(=O)Nc1ccc(Cl)c(C(F)(F)F)c1 | 892
19 | Cc1cccc2nc(-c3ccc(-c4ccc(NC(=O)Nc5ccc(F)c(F)c5F)cc4)cc3)[nH]c12 | 273
20 | COc1ccc(CNCc2ccc(-c3ccc(CNCCc4ccccc4)cn3)cc2)cn1 | 1010
21 | CN1CCCC(CN2CCN(Cc3cccc(-c4cccc(-c5nc6ccccc6[nH]5)c4)c3)CC2)C1 (stereo unspecified) | 139
22 | O=S(=O)(NCCCN1CCOCC1)c1ccc2nccc(Nc3ccc(Oc4ccccc4)cc3)c2c1 | 855
23 | Cc1c(CNCCCNc2cc(=O)c3ccccc3[nH]2)sc(/C=N/O)c1Br | 1080
24 | COc1cc(Nc2nc(N)c3cc(OC)c(OC)cc3n2)cc(OC)c1 | 272

Row | SMILES | XC50 [nM]
25 | CCc1c[nH]c2c(N3CCCC3=O)cc(C(=O)N[C@@H](Cc3ccccc3)[C@H](O)CNC(C)(C)c3cccc(OC)c3)cc12 | 192
26 | COc1cc(CNC[C@@H](O)[C@H](Cc2ccccc2)NC(=O)c2cc(OC(C)C)cc(N3CCCS3(=O)=O)c2)cc(OC)c1 | 798
27 | CS(=O)(=O)CCNCc1cccc(-c2cc3c(Nc4ccc(OCc5ccccc5)cc4)ncnc3cn2)c1 | 734
28 | CCNc1cc(C(=O)N[C@@H](Cc2ccccc2Cl)[C@H](O)CNC(C)CCCC(C)C)cc(N2CCCCS2(=O)=O)c1 (stereo partly specified) | 928
29 | COc1cc(C2CCCCC2)c(OC)cc1CC1c2cc(O)c(Cl)cc2CCN1C (stereo unspecified) | 449
30 | Nc1ccnc(N2CCC(CCOc3ccnc4cc(Cl)ccc34)CC2)c1 | 1160
31 | COc1ccccc1CCNc1nc(C)cc(N[C@@H](Cc2ccccc2)C(=O)NCCOc2ccccc2)n1 | 1210
32 | O=C(Nc1ccc(-c2nc3ccccc3[nH]2)cc1)c1ccc(Cl)s1 | 595
33 | Oc1ccc(Br)cc1C(O)CNCc1ccccc1OCc1ccccc1 (stereo unspecified) | 167
34 | O=C(/C=C/c1cccc(Cl)c1)NCCCCCN1CCC(c2c[nH]c3ccccc23)CC1 | 988
35 | CC[C@H]1CN2CC[C@H]1C[C@H]2[C@H](O)c1cc(N2CCCC2)nc2ccc(OC)cc12 | 44.8
36 | COc1ccc(C(=O)O)cc1OCc1ccccc1 | 819
37 | CC1(C)NC(N)=NC(=N)N1OCCCc1c(Cl)cccc1Cl | 3.2
38 | Cc1cccc(CNc2nc(C)cc(N[C@@H](Cc3ccccc3)C(=O)NCc3cccc(F)c3)n2)c1 | 1040
39 | c1ccc(Oc2ccc(Nc3ccnc4ccc(-c5ccccn5)cc34)cc2)cc1 | 1100
40 | CCC(C)NC(=O)Nc1ccc(-c2cccc(-c3nc4cc(C(F)(F)F)ccc4[nH]3)c2)cc1 (stereo unspecified) | 624
41 | Cc1ccccc1NC(=O)NC1CCN(CCCCCNC(=O)/C=C/c2ccc(Cl)c(Cl)c2)CC1 | 769
42 | CO/C(=C\C=C\c1cc2cc(Cl)c(Cl)cc2[nH]1)C(=O)NCCCN1CCCC[C@H]1C | 791
43 | COc1cccc(Nc2c(C(N)=O)cnc3ccc(-c4ccccc4)cc23)c1 | 771
44 | COc1cc2nc(NCc3nc4ccccc4[nH]3)nc(N)c2cc1OC | 885
45 | O=C(NCc1ccc(F)cc1)c1cnc(N2CCN(c3ccncc3)CC2)c(Cl)c1 | 1390
46 | COc1cc(Cc2cnc(N)nc2N)cc(OCCCCCCN2C(=O)c3ccccc3C2=O)c1OC | 1100
47 | O=C(Nc1nc2cc(S(=O)(=O)NCCCN3CCOCC3)ccc2n1CCCn1ccnc1)c1ccc(Cl)cc1 | 925
48 | O=C(Nc1ccc(Cn2nc(Cl)c(N3CCNCC3)cc2=O)cc1)Nc1ccc(-c2ccccc2)cc1 | 753

Row | SMILES | XC50 [nM]
49 | COc1cc(NCC(C)CNCc2cn(Cc3ccccc3)c3ccccc23)nc2ccccc12 (stereo unspecified) | 633
50 | COc1c(C2CCN(CCCCNC(=O)c3ccc(-c4ccc(C#N)cc4)cc3)CC2)ccc2c1C(C)(C)CCC2(C)C | 411
51 | Clc1cc(Cl)c2c(c1)C(NCCCNc1nc3ccccc3[nH]1)CCO2 (stereo unspecified) | 325
52 | O=C(NCCc1ccccc1)N(Cc1ccccc1-c1cccc(CNC2CCCC2)c1)C1CCN(Cc2ccccc2)CC1 | 832
53 | COc1ccc2ncc(F)c(CCN3CC(O)C(CNCc4ccccc4)C3)c2n1 (stereo unspecified) | 910
54 | CS(=O)(=O)c1ccc(CCNCc2ccc(-c3ccc(CN(C(=O)c4ccc(Cl)nc4)C4CCN(Cc5ccccc5)CC4)cc3)nc2)cc1 | 801
55 | COc1ccc2nccc([C@@H](O)CN3CCC(NC(=O)c4ccc(Cl)c(Cl)c4)CC3)c2c1 | 614
56 | CC(C)(C)c1ccc(NC(=O)c2cccc(CN3CCCN(Cc4cccc(Cl)c4)CC3)c2)cc1 | 997
57 | CC(C)c1ccc(S(=O)(=O)N(c2ccc3c(c2)OCO3)C2CCN(Cc3ccccc3)C2)cc1 (stereo unspecified) | 350
58 | Cc1cccc2nc(-c3cccc(-c4ccc(NC(=O)NC(C)C)cc4)c3)[nH]c12 | 754
59 | CN(C)CCNCc1cccc(-c2ccc3c(Nc4ccc(Oc5ccccn5)cc4)ccnc3c2)c1 | 233
60 | O=C(C=Cc1ccc(Cl)c(Cl)c1)NCCCCCN1CCC(CCCNC(=O)/C=C/c2ccccc2)CC1 | 592
61 | Cc1cc(C(=O)OCC(N)=O)c(C)n1-c1ccc(F)cc1 | 331
62 | CC1(C)N=C(N)N=C(N)C1c1ccc(Cl)c(Cl)c1 (stereo unspecified) | 25.9
63 | CS(=O)(=O)N(c1ccccc1)c1cc(C(=O)N[C@@H](Cc2ccccc2)[C@H](O)CNC2CC2)cc(N2CCCC2=O)c1 | 305
64 | COc1ccc2ncc(F)c(CCN3CCC(NCc4cnc5c(c4)NC(=O)CS5)CC3)c2c1 | 575
65 | O=C(NCCN1CCCCC1)c1ccc(CNC(=O)c2ccc(O)c(-c3ccc(Cl)c(Cl)c3)c2)cc1 | 900
66 | CCCCOc1c(CCNCCCCNCCc2cc(F)c3ccccc3c2OCCCC)cc(F)c2ccccc12 | 629
67 | N#Cc1ccc(CN2CCC(NC(=O)c3ccc(-c4nnc(-c5cccc6ccccc56)o4)cc3)CC2)cc1 | 684
68 | COc1ccc(Nc2nccc(-c3c(-c4cccc(NC(=O)c5c(F)cccc5F)c4)nn4ccccc34)n2)cc1Cl | 284
69 | Fc1ccc2[nH]c(-c3ccc(-c4ccc(CNCCc5ccncc5)cc4)s3)nc2c1 | 142
70 | Oc1cccc(CNCCCN(Cc2ccccc2)c2ccccc2)c1 | 600
71 | O=C(Nc1ccc(OC2CCN(Cc3ccccc3)CC2)c(Cl)c1)c1cccs1 | 312
72 | COc1cc2nc(N3CCN(c4cc(C)ccc4C)CC3)nc(N)c2cc1OC | 851

Row | SMILES | XC50 [nM]
73 | CC(=O)N(C)/N=C/[C@H](CCc1ccccc1)NC(=O)[C@H](CC(C)C)NC(=O)c1cccc(OCCN2CCOCC2)c1 | 332
74 | Cc1sc2ccc(Cl)cc2c1S(=O)(=O)Nc1ccc2nccc(N3CC(C)NC(C)C3)c2c1 (stereo unspecified) | 114
75 | Cc1cccc2nc(-c3ccc(-c4cccc(NC(=O)CCc5c[nH]cn5)c4)cc3)[nH]c12 | 410
76 | CC(C)CC(=O)Nc1cc(=O)[nH]c2nc(-c3ccccc3)nn12 | 351
77 | CCn1ccc2c(N3CCCC3=O)cc(C(=O)N[C@@H](Cc3ccccc3)[C@H](O)CNC(C)(C)CCCC(C)C)cc21 | 347
78 | CCc1ccc(CNCC(CCNc2cc(=O)c3ccccc3[nH]2)NCc2cc(Br)cc(Br)c2)o1 (stereo unspecified) | 638
79 | C[C@H](Cc1ccc(OCCCCCCOc2ccc(C[C@@H](C)N[C@H](C)c3ccccc3)cc2)cc1)NC[C@H](O)c1cccc(Cl)c1 | 241
80 | COc1ccc(NC(=S)NC(NC(=O)CF)C(Cl)(Cl)Cl)cc1[N+](=O)[O-] (stereo unspecified) | 479
81 | CC(C)Sc1nc(-c2ccccc2)nc2c1COC(C)(C)C2 | 857
82 | Cc1cc(O)nc(NC#N)n1 | 166
83 | COc1ccc(-c2ccc(NC(=O)c3cccc(Cl)c3)cc2)cc1CN1CCCC1 | 705
84 | CN(C)c1ccc(C=C2SC(=O)N=C2Nc2ccccc2)cc1 | 32.1
85 | COc1ccc2nccc([C@@H](O)CN3CCC(NCc4ccc5c(n4)NCCC5)CC3)c2c1 | 738
86 | CCCN(CCC)CCCN(CCCN(CCC)CCC)c1cc(C)nc(Nc2ccc(Cl)cc2)n1 | 168
87 | COc1ccc(CN(C)Cc2ccc(NC(=O)c3cccc4c(=O)c5cccc(C)c5[nH]c34)cc2)cc1OC | 844
88 | COc1cc(F)c2ncc(F)c(CCN3C[C@H](CNCc4ccc5c(n4)NC(=O)CS5)[C@H](O)C3)c2c1 | 462
89 | O=C(Nc1ccc(-c2csc(-c3nc4ccccc4[nH]3)c2)cc1)Nc1ccsc1 | 552
90 | CC(=O)Nc1ccc(CN2CCC(N(C)c3cc(NC(=O)c4ccc(F)cc4)ccn3)CC2)cc1 | 1120
91 | O=C(CN1CCCCC1)Nc1ccc(Nc2nccc(NCC(O)c3ccccc3)n2)cc1 (stereo unspecified) | 583
92 | C=CCOC(=O)N1CCC(CNCc2cccc(-c3cccc(-c4nc5cccc(C)c5[nH]4)c3)c2)C1 (stereo unspecified) | 109
93 | COC(=O)c1cccc(CNCc2cccc(-c3ccc(-c4nc5ccccc5[nH]4)s3)c2)c1 | 491
94 | CC[C@H](C)CNC(=O)c1cncc(-c2ccc(CNCC3CNCCCO3)cc2)c1 (stereo partly specified) | 1020
95 | CCCCCOc1ccc(C(O)C(CCC(CN2CCCCCC2)C(O)c2ccc(OCCCCC)cc2)CN2CCCCCC2)cc1 (stereo unspecified) | 768
96 | Nc1nc(N)c2c(CCc3ccc4ccccc4c3)cccc2n1 | 693
